Tests used:
[1] = Solubility assay under CellSensor assay conditions (HPLC-UV); type: physicochemical; conditions: assay buffer, 0.5% DMSO; for Concentration @ t = 0: 0 hours; for Concentration @ t = 3: 3 hours; for Concentration @ t = 7: 7 hours
Procedure: To align with the functional data, all compound samples and dilutions were prepared using the CellSensor® assay conditions that include: assay buffer, plates, sample volumes and the same timeframe. The assay incubation time was 7 hours. 0, 3 and 7 hour samples were analysed, in triplicate, in the final assay buffer (DMEM/Glutamax + NEAA + 20 mM Hepes pH7.4 + 0.01% BSA, final DMSO concentration 0.5%) at nominal compound concentrations of 5, 20 and 50 µM. […] The 7 and 3 hour samples were prepared at times which allowed simultaneous filtering and sample analysis.

[2] = system: Trk null-NFAT-bla CHO-K1 cells; test: CellSensor Trk null-NFAT-bla CHO-K1 reporter gene assay; type: cell-based; conditions: Cricetulus griseus, Figure 2D, 5 hours
Procedure: The assays were configured using Invitrogen CHO-K1 cell lines stably expressing a β-lactamase gene under the control of a NFAT promoter region and the relevant Trk (A, B or C) receptor (except for the Trk null cell line). The activity of the β-lactamase enzyme was quantified via FRET with a fluorescent substrate containing a β-lactam ring, according to manufacturer’s provided protocol. All CellSensor® NFAT-bla CHO-K1 cell lines were seeded into black 384w assay plates in CellSensor® plating media (growth media without antibiotics) at 5,000 cells in a volume of 25 µL per well; cells were incubated at 37°C, 5% CO2 overnight. Then, the assay plating media was removed and replaced with 32 µL of assay media (plating media without serum) and returned to the incubator for 1 hour. […] Levels of β-lactamase activity were then quantified by measuring the fluorescent intensity ratio between ^EX400nm/^EM535nm and ^EX400nm/^EM460nm and cytotoxicity quantified by measuring the fluorescence intensity at ^EX590nm/^EM665nm using a Perkin Elmer EnVision.

[3] = system: striatal neurons; test: Primary neuronal mHTT-induced cell death assay (cortico-striatal co-culture); type: cell-based, rat
From the text: Cortical and striatal neurons were isolated from E18 rat embryos and separately transfected with a HTT exon1 fragment containing 73 CAG repeats (HTTN90Q73), together with a plasmid encoding for either a green AcGFP or a red AsRed fluorescent reporter before being plated on glial cells and treated with candidate pharmacological agents. After 5 days in culture, the number of fluorescent cells remaining was counted using an automated high content imaging and analysis platform (GE Healthcare InCell 2000) and any changes in neuronal survival quantified.

[4] = molecular target: T1, TrkB (Homo sapiens, UniProt Q16620); test: CellSensor TrkB-NFAT-bla CHO-K1 reporter gene assay (agonist, antagonist, PAM modes); type: cell-based; set-up: host or cells: CHO-K1
T1 sequence (Q16620 32-822): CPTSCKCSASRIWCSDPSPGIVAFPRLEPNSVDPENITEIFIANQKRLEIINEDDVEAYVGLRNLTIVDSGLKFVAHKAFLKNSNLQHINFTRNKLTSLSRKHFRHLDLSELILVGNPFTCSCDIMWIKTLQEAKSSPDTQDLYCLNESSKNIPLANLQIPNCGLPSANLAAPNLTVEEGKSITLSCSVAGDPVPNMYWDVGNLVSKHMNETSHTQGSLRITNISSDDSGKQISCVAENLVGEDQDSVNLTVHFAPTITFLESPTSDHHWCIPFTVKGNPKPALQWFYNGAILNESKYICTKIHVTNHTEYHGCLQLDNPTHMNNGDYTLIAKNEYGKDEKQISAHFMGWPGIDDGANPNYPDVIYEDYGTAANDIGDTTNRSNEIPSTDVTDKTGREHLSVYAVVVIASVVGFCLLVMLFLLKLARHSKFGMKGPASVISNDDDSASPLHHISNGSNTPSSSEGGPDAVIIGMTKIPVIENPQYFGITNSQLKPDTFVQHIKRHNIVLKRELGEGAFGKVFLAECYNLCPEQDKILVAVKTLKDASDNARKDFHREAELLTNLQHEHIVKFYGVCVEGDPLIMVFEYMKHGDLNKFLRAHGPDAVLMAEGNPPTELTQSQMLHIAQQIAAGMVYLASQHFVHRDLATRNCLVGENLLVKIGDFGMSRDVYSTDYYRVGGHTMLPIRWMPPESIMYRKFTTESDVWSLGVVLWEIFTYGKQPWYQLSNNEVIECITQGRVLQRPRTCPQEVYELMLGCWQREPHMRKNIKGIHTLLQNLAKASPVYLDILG
Procedure: The assays were configured using Invitrogen CHO-K1 cell lines stably expressing a β-lactamase gene under the control of a NFAT promoter region and the relevant Trk (A, B or C) receptor (except for the Trk null cell line). The activity of the β-lactamase enzyme was quantified via FRET with a fluorescent substrate containing a β-lactam ring, according to manufacturer’s provided protocol. All CellSensor® NFAT-bla CHO-K1 cell lines were seeded into black 384w assay plates in CellSensor® plating media (growth media without antibiotics) at 5,000 cells in a volume of 25 µL per well; cells were incubated at 37°C, 5% CO2 overnight. Then, the assay plating media was removed and replaced with 32 µL of assay media (plating media without serum) and returned to the incubator for 1 hour. […] Test compounds were added (4 µL) and cells were returned to the incubator for 1 hour; dependent on assay mode (agonist, antagonist or positive allosteric modulator) assay media alone (agonist mode), assay media containing EC80 neurotrophin (antagonist mode) or assay media containing EC20 neurotrophin (PAM mode) were then added to the cells (4 µL) for a further 4 hour incubation. ToxBLAzer detection reagent was reconstituted according to the manufacturer’s instructions and 8 µL/well added to the assay plates, these were then incubated at room temperature protected from light for 2 hours. Levels of β-lactamase activity were then quantified by measuring the fluorescent intensity ratio between ^EX400nm/^EM535nm and ^EX400nm/^EM460nm and cytotoxicity quantified by measuring the fluorescence intensity at ^EX590nm/^EM665nm using a Perkin Elmer EnVision.

[5] = molecular target: T1, TrkB; test: DiscoveRx PathHunter U2OS TrkB enzyme fragment complementation (EFC) assay; type: cell-based; conditions: Figure 6C; read-out: BDNF potency (EC50), PathHunter EFC, agonist mode
From the text: The assay was configured using DiscoveRx PathHunter® U2OS cell line stably co-expressing two cDNAs: a ProLink™ (PK) tagged TrkB receptor and an Enzyme Acceptor (EA) tagged SH2 domain. Activation of the TrkB-PK receptor induces receptor dimerization and trans-phosphorylation, leading to SH2-EA recruitment, and thereby forcing complementation of the two β-galactosidase enzyme fragments (EA and PK). The resulting functional enzyme hydrolyzes substrate to generate a chemiluminescent signal. U2OS-TrkB PathHunter® cells were seeded into white 384w assay plates in plating media (1x MEM; 0.5% v/v horse serum) at 10,000 cells in a volume of 20 µL per well, cells were incubated at 37°C, 5% CO2 overnight to adhere to assay plates. Test compounds were added (5 µL) to the cells and the plates were returned to the incubator for 1 hour; dependent on assay mode (agonist, antagonist or positive allosteric modulator) assay media alone (agonist mode), assay media containing EC80 BDNF (antagonist mode) or assay media containing EC20 BDNF (PAM mode) were then added to the cells (5 µL) for a further 4 hour incubation at room temperature. PathHunter® detection reagent was then added (15 µL/well) and incubated at room temperature protected from light for 1 hour. Levels of β-galactosidase activity were then quantified by measuring the chemiluminescent signal obtained using a Perkin Elmer EnVision.

[6] = system: TrkB, AKT and ERK1/2 phosphorylation; test: Western blot of TrkB, AKT and ERK1/2 phosphorylation in TrkB-NFAT-bla CHO-K1 cells; type: cell-based; conditions: 5 hours treatment; Figure 6E
From the text: Clarified cell lysates were resolved by SDS-PAGE, blotted onto nitrocellulose membranes and immunoprobed with the relevant primary and secondary antibody combinations. Anti-pTrkB Tyr^516 (4619), anti-pTrkB Tyr^706/707 (4621), anti-pTrkB, Tyr^816 (4168), anti-pERK1/2 […], anti-pAKT […], anti-TrkB (4603), anti-AKT (4685) and anti-ERK1/2 (4695) were sourced from Cell Signalling Technologies. Anti-GAPDH (IMG-5143A) was obtained from Imgenex; Goat anti-rabbit HRP conjugate (PO448) and Goat anti-mouse HRP conjugate (PO447) were sourced from Dako. Goat anti-mouse 800CW conjugate and Goat anti-rabbit 680 conjugate were sourced from LI-COR. Immunoreactive signals were detected using enhanced chemiluminescence reagent (Amersham) or using the Odyssey infra-red reader.

In the case of `COC(=O)[C@H]1[C@H]2C[C@@H]3c4[nH]c5cc(OC)ccc5c4CCN3C[C@H]2C[C@@H](OC(=O)c2cc(OC)c(OC)c(OC)c2)[C@@H]1OC` [Reserpine], the “Concentration @ t = 0” value ([1]; nominal concentration 5 µM) is reported as 2.8 µM, the “Concentration @ t = 3” value ([1]; nominal concentration 5 µM) is reported as 3.0 µM and the “Concentration @ t = 7” value ([1]; nominal concentration 5 µM) is reported as 3.7 µM. For the same molecule, the “Concentration @ t = 0” value ([1]; nominal concentration 20 µM) was 3.4 µM, the “Concentration @ t = 3” value ([1]; nominal concentration 20 µM) was 2.9 µM and the “Concentration @ t = 7” value ([1]; nominal concentration 20 µM) was 4.5 µM. The “Concentration @ t = 0” value ([1]; nominal concentration 50 µM) was 6.7 µM, the “Concentration @ t = 3” value ([1]; nominal concentration 50 µM) was 4.5 µM and the “Concentration @ t = 7” value ([1]; nominal concentration 50 µM) was 6.9 µM.

`C/C=C(/C)C(=O)O[C@H]1C(C)=C2[C@H]([C@@H]1OC(=O)CCCCCCC)[C@@](C)(OC(C)=O)C[C@H](OC(=O)CCC)[C@@]1(O)[C@H]2OC(=O)[C@@]1(C)O` [Thapsigargin] gave an EC50 [2] of 1.6 nM.

For `COc1ccc(C(=O)c2cn(C(C)C)c3ncnc(N)c23)cc1NC(=O)Nc1ccc(Cl)cc1Cl` [pan-Trk kinase inhibitor, 1-(5-(4-amino-7-isopropyl-7H-pyrrolo[2,3-d]pyrimidine-5-carbonyl)-2-methoxyphenyl)-3-(2,4-dichlorophenyl)urea], the “Effect on antibody effects in striatal neurons” value ([3]; data not shown) was “reversed” and the “Effect on induction of NFAT activity by TrkB mAbs” value ([4]; co-incubation, pan-Trk inhibitor 100 nM) was “completely prevented”.

B1: Brain-derived neurotrophic factor (protein, UniProt P23560 19-247, looked up)
Neurotrophic factor BDNF …: APMKEANIRGQGGLAYPGVRTHGTLESVNGPKAGSRGLTSLADTFEHVIEELLDEDQKVRPNEENNKDADLYTSRVMLSSQVPLEPPLLFLLEEYKNYLDAANMSMRVRRHSDPARRGELSVCDSISEWVTAADKKTAVDMSGGTVTVLEKVPVSKGQLKQYFYETKCNPMGYTKEGCRGIDKRHWNSQCRTTQSYVRALTMDSKKRIGWRFIRIDTSCVCTLTIKRGR
notes: Neuroprotective secreted protein, cognate neurotrophin of TrkB
For B1, the EC50 [5] was 0.823 nM, the EC50 ([3]; Figure 7A, normalized to 1 nM BDNF (100% Rescue) and vehicle (0%), read-out: EC50, % Rescue of striatal neurons from mHTT-induced cell death) was 0.214 nM and the EC50 ([4]; Figure 4A, 5 hours, read-out: EC50, TrkB-NFAT-bla reporter, agonist mode) was 0.145 nM. The EC50 ([4]; Figure 6A, read-out: BDNF potency (EC50), CellSensor NFAT reporter, agonist mode) was 0.323 nM and the “TrkB, ERK1/2 and AKT phosphorylation (pathway activation)” value [6] was “induced phosphorylation of TrkB, ERK1/2 and AKT”.

Reference: PMC3913682, “A Monoclonal Antibody TrkB Receptor Agonist as a Potential Therapeutic for Huntington’s Disease” (PLoS ONE, 2014)
